For two compounds, Ki and IC90 results are on record in patent publication US5663333A, “Substituted 1,4-diazapine caprolactams useful for treatment of HIV disease” (The DuPont Merck Pharmaceutical Company, priority 1993, dated 1997).

The target of experiment [1] is T1, HIV-1 protease (Human immunodeficiency virus type 1 group M subtype B, UniProt P04585).
T1 construct: synthetic gene coding for a single-chain tethered dimer of HIV protease; second copy of HIV protease joined in the same chain by a tether (single-chain tethered dimer); made in house
The experiment is described as follows: HIV Protease Inhibition Assay - HPLC Method. Type of experiment: biochemical. As to conditions: single-chain tethered dimer of HIV protease, pH 5.5. As for the experimental part:
Protease: Inclusion bodies of E. coli harboring plasmid containing plasmid T1718R with a synthetic gene coding for a single-chain tethered dimer of HIV protease were prepared as described in Cheng et al. (Proc. Natl. Acad. Sci. USA, 87, 9660-9664, 1990). Active protease was prepared as described therein by extraction with 67% acetic acid, dilution 33-fold with water, dialysis against water and then against a "refolding buffer" consisting of 20 mM MES, 1 mM dithiothreitol and 10% glycerol. Protease was stored as a stock preparation at 10 uM in refolding buffer. […]
HPLC measurement of product formation: The product (aminobenzoyl-Ala--Thr--His--Gln--Val--Tyr) was separated from substrate on a Pharmacia MonoQ anion exchange column. […] Detection with a Shimadzu model RF535 fluorescence monitor was at 330 nm (excitation) and 430 (emission). The Ki was calculated from the formula Ki=I/(((Km+S-FA*S)/(FA*Km))-1) where I=inhibitory concentration, S=substrate concentration, FA=fractional activity=cm peak height with inhibitor/cm peak height without inhibitor, and Km=Michaelis constant=20 uM.
In the Tables herein the Ki values were determined using the assay conditions described above under HIV Protease Inhibition Assay-HPLC Method. […]

Experiment [2] deals with HIV(3B) or HIV(RF) in MT-2 cells. The experiment is described as follows: HIV Low Multiplicity Assay (whole cell infectivity assay). Type of experiment: cell-based. The conditions noted are these: Human immunodeficiency virus 1, MT2, 168 h, 7 days, XTT, 90% protection from virus induced cell death. As for the experimental part:
Materials: MT-2, a human T-Cell line, was cultured in RPMI medium supplemented with 5% (v/v) heat inactivated fetal calf serum (FCS), L-glutamine and gentamycin (GIBCO). Human immunodeficiency virus strains HIV (3B) and HIV (RF) were propagated in H-9 cells in RPMI with 5% FCS. XTT, benzene-sulfonic acid, 3,3'-[1-[(phenyl-amino) carbonyl]-3,4-tetrazolium]bis(4-methoxy-6-nitro)-, sodium salt, was obtained from Starks Associates, Inc.
Method: Test compounds were dissolved in dimethylsulfoxide to 5 mg/ml and serially diluted into RPMI medium to ten times the desired final concentration. MT-2 cells (5×10^4 /0.1 mL) were added to each well of a 96 well culture plate and 0.02 mL of the appropriate test compound solution was added to the cells such that each compound concentration was present in two wells. The cells and compounds were allowed to sit for 30 minutes at room temperature. […] The percentage of cells protected from virus induced cell death was determined by the degree of metabolism of the tetrazolium dye, XTT. In living cells, XTT was metabolized to a colored formazan product which was quantitated spectrophotometrically at 450 nm. […]
In the Tables herein the IC90 values were determined using the assay conditions described above under HIV Low Multiplicity Assay. […]
In general terms: Tetrazolium dyes change colour on reduction, which living cells bring about.

SMILES strings stand for the structures.

As usually defined, the Ki is a dissociation constant, usually derived from enzyme kinetics or from competition with a known ligand. Read a low Ki as higher affinity. A word on the IC90: it is the concentration at which the effect reaches the 90% level. Compound `O=C1N[C@H](Cc2ccccc2)[C@H](O)CN[C@H]1Cc1ccccc1` [Example 1] showed a Ki in experiment [1] of under 10 nM. This compound gave an IC90 in experiment [2] of under 10 µg/mL.

`O=C1N[C@H](Cc2ccccc2)[C@H](O)CN(Cc2ccccc2)[C@H]1Cc1ccccc1` [Example 24] yielded a Ki in experiment [1] of 10 to 1000 nM. The compound also registered an IC90 in experiment [2] of under 10 µg/mL.
